The assay deals with Pyocyanin. Briefly: Pyocyanin Inhibition Assay. Conditions: Pseudomonas aeruginosa, PA14, 24 h, read-out: Pyocyanin Inhibition No. IC50 (μM). It counts as cell-based, P. aeruginosa, strain PA14. The procedure:
Test compounds are dissolved in DMSO at 10 mM and stored at −20° C. until needed. Seven test concentrations from 0.0032 micromolar to 31.6 micromolar are used for each compound.
P. aeruginosa, strain PA14, is inoculated into 5 mL of LB broth in a 15-mL sterile glass culture tube and incubated overnight at 37° C. under shaking (˜240 rpm). The overnight culture is then diluted in LB Broth to give an OD600=0.04 (T0 culture). Colony Forming Units (CFU)/mL of the overnight culture and T0 culture are determined by a series of 1:10 serial dilutions in sterile saline. 4×20 μL of each dilution is seeded on LB agar plates and incubated at 35±2° C. for 20 hours. CFU/mL is determined from the dilution that gives 2 to 50 colonies/20 μL.
For concentration response curve (CRC) experiments, internal standard, 2-((5-nitro-1H-indol-2-yl)thio)-N-(4-phenoxyphenyl)acetamide, a compound previously identified as an MvfR inhibitor (see Example 1 of US 2014-0066454 (WO 2012/116010)), and test compounds are serially diluted in DMSO to 200 times each final concentration (0.5% DMSO fmal), and 1 μL/well is dispensed in duplicate into 2 mL wells of a 96-well deep well plate. 200 μL/well of T0 culture are added to each internal standard/test compound well. Wells containing only T0 culture (200 200 μL/well) are used to determine pyocyanin control level and wells containing only LB broth (blank wells) are also included in the plate.
The plate is sealed and incubated at 37° C. under shaking (˜700 rpm) using a microtiter shaker for 24 hours. At the end of the incubation period, the plate is centrifuged at 4,000 g for 40 minutes at room temperature, 100 μL/well of the supernatant is transferred to a 96-microtiter PS flat-bottom plate, and absorbance at 690 nm is determined using SPECTROstar® Nano microplate reader. Pyocyanin concentration (M) is determined using the equation C=A690/(ε×d), where ε is the Pyocyanin extinction coefficient, at A690 nm ε is 4,310 M^−1 cm^−1 and d is the experimentally derived pathlength. The level of pyocyanin in the presence of test compound is expressed as percentage of inhibition with respect to the control. Curve fitting and IC50 determination were carried out using a four-parameter logistic model using GraphPad Prism v.5.

As for `O=C(CSc1nc2cc(C(=O)O)ccc2[nH]1)Nc1ccc(Cl)cc1` [Compound 97], the IC50 was > 10 µM.

Consider `CS(=O)(=O)c1ccc2[nH]c(SCC(=O)Nc3ccc(Cl)cc3)nc2c1` [Compound 98], for which the IC50 is > 10 µM.

As to `NS(=O)(=O)c1ccc2[nH]c(SCC(=O)Nc3ccc(Cl)cc3)nc2c1` [Compound 99], the IC50 was > 10 µM.

Consider `O=C(CSc1nc2ccncc2[nH]1)Nc1ccc(Cl)cc1` [Compound 100], for which the IC50 is > 10 µM.

For the compound `O=C(CSc1nc2cccnc2[nH]1)Nc1ccc(Cl)cc1` [Compound 101], the IC50 was > 10 µM.

On to `N#Cc1ccc(NC(=O)CSc2nc3cnccc3[nH]2)cc1` [Compound 102], for which the IC50 is > 10 µM.

Turning to `N#Cc1ccc(NC(=O)CSc2nc3ncccc3[nH]2)cc1` [Compound 103], the IC50 was > 10 µM.

For `CS(=O)(=O)c1ccc2[nH]c(SCC(=O)Nc3ccc(C#N)cc3)nc2c1` [Compound 107], the IC50 is > 10 µM.

As to `N#Cc1ccc(NC(=O)CSc2nc3cc(S(N)(=O)=O)ccc3[nH]2)cc1` [Compound 108], the IC50 is > 10 µM.

Regarding `COC(=O)c1ccc2[nH]c(SCC(=O)Nc3ccc(Cl)cc3)nc2c1` [Compound 109], the IC50 was > 10 µM.

For `O=C(CSc1nc2ccc(-c3ncccn3)cc2[nH]1)Nc1ccc(Cl)cc1` [Compound 114], the IC50 is > 10 µM.

On to `CNC(=O)c1ccc2[nH]c(SCC(=O)Nc3ccc(Cl)cc3)nc2c1` [Compound 115], for which the IC50 was > 10 µM.

Consider `CN(C)C(=O)c1ccc2[nH]c(SCC(=O)Nc3ccc(Cl)cc3)nc2c1` [Compound 118], for which the IC50 was > 10 µM.

In the case of `CN(C)C(=O)c1ccc2[nH]c(SCC(=O)Nc3ccc(C#N)cc3)nc2c1` [Compound 119], the half-inhibitory concentration (IC50) was > 10 µM.

Regarding `Cc1ccc(NC(=O)C(C)Sc2nc3ccc(Cl)cc3[nH]2)cc1` (stereo not drawn) [Compound 120], the IC50 is > 10 µM.

In the case of `Cc1cccc(NC(=O)CSc2nc3cccnc3[nH]2)c1` [Compound 121], the IC50 is > 10 µM.

In the case of `O=C(CSc1nc2cccnc2[nH]1)Nc1ccccc1` [Compound 122], the IC50 was > 10 µM.

For the compound `CC(=O)Nc1cccc(NC(=O)CSc2nc3cc(C)ccc3[nH]2)c1` [Compound 123], the IC50 is > 10 µM.

As for `CC(=O)c1ccc(NC(=O)CSc2nc3ccc(C)cc3[nH]2)cc1` [Compound 124], the IC50 is > 10 µM.

For `O=C(CSc1nc2ccc(-c3ncco3)cc2[nH]1)Nc1ccc(Cl)cc1` [Compound 127], the IC50 is > 10 µM.

On to `N#Cc1ccc(NC(=O)CSc2nc3ccc(-c4ncco4)cc3[nH]2)cc1` [Compound 128], for which the IC50 was > 10 µM.

As to `CNC(=O)c1ccc2[nH]c(SCC(=O)Nc3ccc(C#N)cc3)nc2c1` [Compound 129], the IC50 is > 10 µM.

Regarding `N#Cc1ccc(NC(=O)CSc2nc3cc(O)ccc3[nH]2)cc1` [Compound 130], the half-inhibitory concentration (IC50) was > 10 µM.

Turning to `O=C(CSc1nc2cc(O)ccc2[nH]1)Nc1ccc(Cl)cc1` [Compound 131], the IC50 is > 10 µM.

For `O=C(CSc1nc2ccncc2[nH]1)Nc1ccccc1F` [Compound 132], the IC50 was > 10 µM.

On to `Cc1ccc(NC(=O)CSc2nc3cccnc3[nH]2)cc1` [Compound 133], for which the IC50 was > 10 µM.

Regarding `Cc1cc(Cl)ccc1NC(=O)CSc1nc2cc(C#N)ccc2[nH]1` [Compound 160, N-(4-chloro-2-methylphenyl)-2-((5-cyano-1H-benzo[d]imidazol-2-yl)thio)acetamide], the half-inhibitory concentration (IC50) lay within 1 to 10 µM.

Take `COc1cc(Oc2cccnc2)ccc1NC(=O)CSc1nc2cc(Cl)ccc2[nH]1` [Compound 161, 2-((5-chloro-1H-benzo[d]imidazol-2-yl)thio)-N-(2-methoxy-4-(pyridin-3-yloxy)phenyl)acetamide]: the IC50 is < 0.1 µM.

For the compound `O=C(CSc1nc2cc(Cl)ccc2[nH]1)Nc1ccc(Oc2cccnc2)cc1O` [Compound 162, 2-((5-Chloro-1H-benzo[d]imidazol-2-yl)thio)-N-(2-hydroxy-4-(pyridin-3-yloxy)phenyl)acetamide], the IC50 was < 0.1 µM.

Consider `Cc1cc(Oc2cccnc2)ccc1NC(=O)CSc1nc2cc(Cl)ccc2[nH]1` [Compound 163, 2-((5-Chloro-1H-benzo[d]imidazol-2-yl)thio)-N-(2-methyl-4-(pyridin-3-yloxy)phenyl)acetamide], for which the IC50 fell in the range of 0.1 to 1 µM.

On to `COc1cc(Cl)cc2nc(SCC(=O)Nc3ccc(Oc4cccnc4)cc3)[nH]c12` [Compound 164, 2-((5-chloro-7-methoxy-1H-benzo[d]imidazol-2-yl)thio)-N-(4-(pyridin-3-yloxy)phenyl)acetamide], for which the 50% inhibitory concentration (IC50) was < 0.1 µM.

Turning to `O=C(CSc1nc2cc(Cl)ccc2[nH]1)Nc1ccc(Oc2cccnc2)cc1Cl` [Compound 165, 2-((5-Chloro-1H-benzo[d]imidazol-2-yl)thio)-N-(2-chloro-4-(pyridin-3-yloxy)phenyl)acetamide], the IC50 is < 0.1 µM.

With `COc1cc(Cl)cc2nc(SCC(=O)Nc3ccc(Cl)cc3)[nH]c12` [Compound 166, 2-((5-Chloro-7-methoxy-1H-benzo[d]imidazol-2-yl)thio)-N-(4-chlorophenyl)acetamide], the IC50 lay within 0.1 to 1 µM.

Regarding `N#Cc1ccc2[nH]c(SCC(=O)Nc3ccc(Cl)cc3Cl)nc2c1` [Compound 167, 2-((5-Cyano-1H-benzo[d]imidazol-2-yl)thio)-N-(2,4-dichlorophenyl)acetamide], the concentration for half-maximal inhibition (IC50) lay within 0.1 to 1 µM.

As to `Cc1cc(Oc2cccnc2)ccc1NC(=O)CSc1nc2cc(C#N)ccc2[nH]1` [Compound 168, 2-((5-Cyano-1H-benzo[d]imidazol-2-yl)thio)-N-(2-methyl-4-(pyridin-3-yloxy)phenyl)acetamide], the IC50 was in the range of 0.1 to 1 µM.

Take `COc1cc(Oc2cccnc2)ccc1NC(=O)CSc1nc2cc(C#N)ccc2[nH]1` [Compound 169, 2-((5-Cyano-1H-benzo[d]imidazol-2-yl)thio)-N-(2-methoxy-4-(pyridin-3-yloxy)phenyl)acetamide]: the IC50 lay within 0.1 to 1 µM.

Turning to `N#Cc1ccc2[nH]c(SCC(=O)Nc3ccc(Oc4cccnc4)cc3Cl)nc2c1` [Compound 170, N-(2-chloro-4-(pyridin-3-yloxy)phenyl)-2-((5-cyano-1H-benzo[d]imidazol-2-yl)thio)acetamide], the IC50 is < 0.1 µM.

On to `CC(C)(O)c1cc(Cl)cc2nc(SCC(=O)Nc3ccc(Oc4cccnc4)cc3)[nH]c12` [Compound 171, 2-((5-chloro-7-(2-hydroxypropan-2-yl)-1H-benzo[d]imidazol-2-yl)thio)-N-(4-(pyridin-3-yloxy)phenyl)acetamide], for which the IC50 was < 0.1 µM.

Take `O=C(C[C@H](O)c1nc2ccc(Cl)cc2[nH]1)Nc1ccc(Oc2cccnc2)cc1` [Compound 172, (S)-3-(6-chloro-1H-benzo[d]imidazol-2-yl)-3-hydroxy-N-(4-(pyridin-3-yloxy)phenyl)propanamide]: the IC50 lay within 1 to 10 µM.

One may read the IC50 as the concentration that gives 50% inhibition.
